Test results as given in the supplement of paper PMC10307832.

Tests used:
Assay in all cases: relative viability (nuclei count vs DMSO), 5 days (fraction); higher = more cells survive
Tipifarnib + Phenformin = compound: Cn1cncc1[C@@](N)(c1ccc(Cl)cc1)c1ccc2c(c1)c(-c1cccc(Cl)c1)cc(=O)n2C [Tipifarnib] + N=C(N)NC(=N)NCCc1ccccc1 [Phenformin] (partner 250 µM)
How it was run: (§1)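 Lung cancer cell lines in 1536-well plates got either a single drug or a fixed anchor-drug dose together with five library-drug doses (not always all listed) in √10 steps, by pin tool, on the day after seeding. Nuclei were counted after 5 days, and relative viability is the treated-to-vehicle ratio of nuclei counts. Values are medians of duplicate plates.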

Tipifarnib + Pemetrexed = compound: Cn1cncc1[C@@](N)(c1ccc(Cl)cc1)c1ccc2c(c1)c(-c1cccc(Cl)c1)cc(=O)n2C [Tipifarnib] + Nc1nc2[nH]cc(CCc3ccc(C(=O)N[C@@H](CCC(=O)O)C(=O)O)cc3)c2c(=O)[nH]1 [Pemetrexed] (partner 0.2 µM)
How it was run: as §1

Tipifarnib + Dasatinib = compound: Cn1cncc1[C@@](N)(c1ccc(Cl)cc1)c1ccc2c(c1)c(-c1cccc(Cl)c1)cc(=O)n2C [Tipifarnib] + Cc1nc(Nc2ncc(C(=O)Nc3c(C)cccc3Cl)s2)cc(N2CCN(CCO)CC2)n1 [Dasatinib] (partner 0.075 µM)
How it was run: as §1

Tipifarnib + Tozasertib = compound: Cn1cncc1[C@@](N)(c1ccc(Cl)cc1)c1ccc2c(c1)c(-c1cccc(Cl)c1)cc(=O)n2C [Tipifarnib] + Cc1cc(Nc2cc(N3CCN(C)CC3)nc(Sc3ccc(NC(=O)C4CC4)cc3)n2)n[nH]1 [Tozasertib] (partner 0.1 µM)
How it was run: as §1

Tipifarnib + Vorinostat = compound: Cn1cncc1[C@@](N)(c1ccc(Cl)cc1)c1ccc2c(c1)c(-c1cccc(Cl)c1)cc(=O)n2C [Tipifarnib] + O=C(CCCCCCC(=O)Nc1ccccc1)NO [Vorinostat] (partner 1 µM)
How it was run: as §1

Tipifarnib + Olaparib = compound: Cn1cncc1[C@@](N)(c1ccc(Cl)cc1)c1ccc2c(c1)c(-c1cccc(Cl)c1)cc(=O)n2C [Tipifarnib] + O=C(c1cc(Cc2n[nH]c(=O)c3ccccc23)ccc1F)N1CCN(C(=O)C2CC2)CC1 [Olaparib] (partner 8 µM)
How it was run: as §1

Tipifarnib + Foretinib = compound: Cn1cncc1[C@@](N)(c1ccc(Cl)cc1)c1ccc2c(c1)c(-c1cccc(Cl)c1)cc(=O)n2C [Tipifarnib] + COc1cc2c(Oc3ccc(NC(=O)C4(C(=O)Nc5ccc(F)cc5)CC4)cc3F)ccnc2cc1OCCCN1CCOCC1 [Foretinib] (partner 0.25 µM)
How it was run: as §1

Tipifarnib + Palbociclib = compound: Cn1cncc1[C@@](N)(c1ccc(Cl)cc1)c1ccc2c(c1)c(-c1cccc(Cl)c1)cc(=O)n2C [Tipifarnib] + CC(=O)c1c(C)c2cnc(Nc3ccc(N4CCNCC4)cn3)nc2n(C2CCCC2)c1=O [Palbociclib] (partner 0.5 µM)
How it was run: as §1

Tipifarnib + OSI-027 = compound: Cn1cncc1[C@@](N)(c1ccc(Cl)cc1)c1ccc2c(c1)c(-c1cccc(Cl)c1)cc(=O)n2C [Tipifarnib] + COc1cccc2cc(-c3nc([C@H]4CC[C@H](C(=O)O)CC4)n4ncnc(N)c34)[nH]c12 [OSI-027] (partner 0.5 µM)
How it was run: as §1

Tipifarnib + Luminespib = compound: Cn1cncc1[C@@](N)(c1ccc(Cl)cc1)c1ccc2c(c1)c(-c1cccc(Cl)c1)cc(=O)n2C [Tipifarnib] + CCNC(=O)c1noc(-c2cc(C(C)C)c(O)cc2O)c1-c1ccc(CN2CCOCC2)cc1 [Luminespib] (partner 0.01 µM)
How it was run: as §1

Tipifarnib + AZD7762 = compound: Cn1cncc1[C@@](N)(c1ccc(Cl)cc1)c1ccc2c(c1)c(-c1cccc(Cl)c1)cc(=O)n2C [Tipifarnib] + NC(=O)Nc1cc(-c2cccc(F)c2)sc1C(=O)N[C@H]1CCCNC1 [AZD7762] (partner 0.2 µM)
How it was run: as §1

Tipifarnib + Trametinib = compound: Cn1cncc1[C@@](N)(c1ccc(Cl)cc1)c1ccc2c(c1)c(-c1cccc(Cl)c1)cc(=O)n2C [Tipifarnib] + CC(=O)Nc1cccc(-n2c(=O)n(C3CC3)c(=O)c3c(Nc4ccc(I)cc4F)n(C)c(=O)c(C)c32)c1 [Trametinib] (partner 0.02 µM)
How it was run: as §1

Tipifarnib + Decitabine = compound: Cn1cncc1[C@@](N)(c1ccc(Cl)cc1)c1ccc2c(c1)c(-c1cccc(Cl)c1)cc(=O)n2C [Tipifarnib] + Nc1ncn([C@H]2C[C@H](O)[C@@H](CO)O2)c(=O)n1 [Decitabine] (partner 2 µM)
How it was run: as §1

Tipifarnib = compound: Cn1cncc1[C@@](N)(c1ccc(Cl)cc1)c1ccc2c(c1)c(-c1cccc(Cl)c1)cc(=O)n2C [Tipifarnib]
How it was run: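 For viability, nuclei in each treated well were divided by nuclei in vehicle wells and the median across plates was taken. Lung cancer cell lines in 1536-well plates were pinned with five library-drug doses (not always all listed) spaced by √10, cultured 5 days without medium change, and imaged at 4× after Hoechst staining, with plates passing only at control CV below 25% and at least one doubling.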

SW 900
relative viability (Tipifarnib + Phenformin; first compound 0.01 µM): 0.405
relative viability (Tipifarnib + Phenformin; first compound 0.03162 µM): 0.216
relative viability (Tipifarnib + Phenformin; first compound 0.1 µM): 0.365
relative viability (Tipifarnib + Phenformin; first compound 0.3162 µM): 0.244
relative viability (Tipifarnib + Phenformin; first compound 1 µM): 0.207
relative viability (Tipifarnib + Pemetrexed; first compound 0.01 µM): 0.397
relative viability (Tipifarnib + Pemetrexed; first compound 0.03162 µM): 0.272
relative viability (Tipifarnib + Pemetrexed; first compound 0.1 µM): 0.455
relative viability (Tipifarnib + Pemetrexed; first compound 0.3162 µM): 0.303
relative viability (Tipifarnib + Pemetrexed; first compound 1 µM): 0.299
relative viability (Tipifarnib + Dasatinib; first compound 0.01 µM): 0.476
relative viability (Tipifarnib + Dasatinib; first compound 0.03162 µM): 0.289
relative viability (Tipifarnib + Dasatinib; first compound 0.1 µM): 0.269
relative viability (Tipifarnib + Dasatinib; first compound 0.3162 µM): 0.158
relative viability (Tipifarnib + Dasatinib; first compound 1 µM): 0.289
relative viability (Tipifarnib + Tozasertib; first compound 0.01 µM): 0.335
relative viability (Tipifarnib + Tozasertib; first compound 0.03162 µM): 0.261
relative viability (Tipifarnib + Tozasertib; first compound 0.1 µM): 0.289
relative viability (Tipifarnib + Tozasertib; first compound 0.3162 µM): 0.31
relative viability (Tipifarnib + Tozasertib; first compound 1 µM): 0.273
relative viability (Tipifarnib + Vorinostat; first compound 0.01 µM): 0.435
relative viability (Tipifarnib + Vorinostat; first compound 0.03162 µM): 0.144
relative viability (Tipifarnib + Vorinostat; first compound 0.1 µM): 0.278
relative viability (Tipifarnib + Vorinostat; first compound 0.3162 µM): 0.227
relative viability (Tipifarnib + Vorinostat; first compound 1 µM): 0.187
relative viability (Tipifarnib + Olaparib; first compound 0.01 µM): 0.508
relative viability (Tipifarnib + Olaparib; first compound 0.03162 µM): 0.545
relative viability (Tipifarnib + Olaparib; first compound 0.1 µM): 0.494
relative viability (Tipifarnib + Olaparib; first compound 0.3162 µM): 0.406
relative viability (Tipifarnib + Olaparib; first compound 1 µM): 0.381
relative viability (Tipifarnib + Foretinib; first compound 0.01 µM): 0.716
relative viability (Tipifarnib + Foretinib; first compound 0.03162 µM): 0.481
relative viability (Tipifarnib + Foretinib; first compound 0.1 µM): 0.381
relative viability (Tipifarnib + Foretinib; first compound 0.3162 µM): 0.39
relative viability (Tipifarnib + Foretinib; first compound 1 µM): 0.412
relative viability (Tipifarnib + Palbociclib; first compound 0.01 µM): 0.454
relative viability (Tipifarnib + Palbociclib; first compound 0.03162 µM): 0.415
relative viability (Tipifarnib + Palbociclib; first compound 0.1 µM): 0.347
relative viability (Tipifarnib + Palbociclib; first compound 0.3162 µM): 0.332
relative viability (Tipifarnib + Palbociclib; first compound 1 µM): 0.354
relative viability (Tipifarnib + OSI-027; first compound 0.01 µM): 0.309
relative viability (Tipifarnib + OSI-027; first compound 0.03162 µM): 0.1
relative viability (Tipifarnib + OSI-027; first compound 0.1 µM): 0.27
relative viability (Tipifarnib + OSI-027; first compound 0.3162 µM): 0.189
relative viability (Tipifarnib + OSI-027; first compound 1 µM): 0.18
relative viability (Tipifarnib + Luminespib; first compound 0.01 µM): 0.188
relative viability (Tipifarnib + Luminespib; first compound 0.03162 µM): 0.188
relative viability (Tipifarnib + Luminespib; first compound 0.1 µM): 0.196
relative viability (Tipifarnib + Luminespib; first compound 0.3162 µM): 0.167
relative viability (Tipifarnib + Luminespib; first compound 1 µM): 0.185
relative viability (Tipifarnib + AZD7762; first compound 0.01 µM): 0.464
relative viability (Tipifarnib + AZD7762; first compound 0.03162 µM): 0.372
relative viability (Tipifarnib + AZD7762; first compound 0.1 µM): 0.331
relative viability (Tipifarnib + AZD7762; first compound 0.3162 µM): 0.292
relative viability (Tipifarnib + AZD7762; first compound 1 µM): 0.259
relative viability (Tipifarnib + Trametinib; first compound 0.01 µM): 0.517
relative viability (Tipifarnib + Trametinib; first compound 0.03162 µM): 0.465
relative viability (Tipifarnib + Trametinib; first compound 0.1 µM): 0.489
relative viability (Tipifarnib + Trametinib; first compound 0.3162 µM): 0.478
relative viability (Tipifarnib + Trametinib; first compound 1 µM): 0.332
relative viability (Tipifarnib + Decitabine; first compound 0.01 µM): 0.387
relative viability (Tipifarnib + Decitabine; first compound 0.03162 µM): 0.39
relative viability (Tipifarnib + Decitabine; first compound 0.1 µM): 0.294
relative viability (Tipifarnib + Decitabine; first compound 0.3162 µM): 0.368
relative viability (Tipifarnib + Decitabine; first compound 1 µM): 0.402
relative viability (Tipifarnib; 0.01 µM): 0.697
relative viability (Tipifarnib; 0.03162 µM): 0.282
relative viability (Tipifarnib; 0.1 µM): 0.486
relative viability (Tipifarnib; 0.3162 µM): 0.338
relative viability (Tipifarnib; 1 µM): 0.272
